# Source: patent US20240082205A1, “USE OF PHTHALIDE COMPOUNDS IN TREATMENT OF MENINGIOMA” (EVERFRONT BIOTECH INC., priority 2020, published 2024)
# Tests used:
# IOMM-Lee cells = test: MTT cell viability, killing meningioma cells (IOMM-Lee); assay type: cell-based, Human; conditions: IOMM-Lee grade III malignant meningioma cells, 72 hours; for IC50: Homo sapiens, read-out: IC50 (concentration to achieve 50% lethal rate)
# Source text: (§1) In the following Examples, the used materials and equipment are described as below: • 1. Human meningioma cell lines: IOMM-Lee cells (purchased from ATCC; CRL-3370;
# (§2) belonging to grade III malignant meningioma cells), AMGI-0102 primary culture cells (obtained by the approval according to the human subject research of Hualien Tzu Chi Hospital (Buddhist Tzu Chi Medical Foundation); belonging to grade I benign meningioma cells). • 2. […] Medium for AMGI-0102 cells: DMEM/F12 medium (Dulbecco's Modified Eagle Medium/F12 with L-glutamine, HEPES; purchased from HyClone; product number: SH30023.02) containing 10% Fetal Bovine Serum and 1% penicillin/streptomycin. • 4. Z-butylidenephthalide (Z-BP): provided by Everfront Biotech Inc.; purity 99.8%. • 5. E-butylidenephthalide (E-BP): provided by Everfront Biotech Inc.; purity 98.01%. • 6. 2-pentanolybenzoic acid (BP-OH): provided by Everfront Biotech Inc.; purity 99.6%. • 7. Sodium^2-pentanoylbenzoate (BPONa): provided by Everfront Biotech Inc.; purity 99.7%. • 8. 5-fluorouracil (5-FU): purchased from Sigma; product number: F6627. • 9. Carmustine (BCNU): purchased from Sigma; product number: SI-00400-100MG. • 10. MTIC: purchased from Biosynth Carbosynth; product number: FM26098. • 11. MTT (Thiazolyl Blue tetrazolium bromide, 3-[4,5-dimethylthiahiazo-2-yl]-2,4-dipheny-tetrazolium bromide): purchased from ALFA Aesar™; product number: L11939-000000-16AF. • 12. ELISA reader: purchased from Thermo Fisher Scientific; model number: 22662. • 13. […]
# IOMM-Lee cells and AMGI-0102 cells were independently seeded in a 96-well plate (1×10^4 cells/well), and the 96-well plate was placed under an environment of 37° C. and 5% CO2 for 24 hours. After that, the cells in the 96-well plate were subjected to the following procedures: • (a) the cells in different wells were cultured with a medium containing Z-butylidenephthalide, E-butylidenephthalide, 2-pentanolybenzoic acid, or sodium^2-pentanoylbenzoate, and the 96-well plate was placed under an environment of 37° C. and 5% CO2 for 72 hours; • (b) MTT was added into each well (the final concentration is 0.5 mg/ml), and the 96-well plate was placed under an environment of 37° C. and 5% CO2 for 1.5 hours; • (c) the medium of each well was removed, and then dimethyl sulfoxide was added (100 μl/well); and • (d) an absorbance value of each well at 595 nm was measured by an ELISA reader. […]
# AMGI-0102 cells = test: MTT cell viability, killing meningioma cells (AMGI-0102); assay type: cell-based, Human; conditions: AMGI-0102 grade I benign meningioma primary culture cells, 72 hours
# Source text: as §1
# as §2, with “MTT (Thiazolyl Blue tetrazolium bromide, 3-[4,5-dimethylthiahiazo-2-yl]-2,4-dipheny-tetrazolium bromide): purchased from ALFA Aesar™; product number: L11939-000000-16AF. • 12.” left out
# p-JNK protein = test: Western Blotting of p-JNK protein in IOMM-Lee cells; assay type: cell-based, Human; conditions: IOMM-Lee cells, 0, 16.8 and 33.6 μg/ml, 24 hours, FIG. 1
# Source text: (§3) It is known that the activations (phosphorylation) of ERK (extracellular signal-regulated kinase) protein and JNK (c-Jun N-terminal kinase) protein in the protein kinase family are related to the proliferation of tumor cells. The aforesaid facts can be found in such as: “The ERK and JNK pathways in the regulation of metabolic reprogramming ” Oncogene. 2019; 38: 2223-2240; “ERK Inhibitor LY3214996 Targets ERK Pathway-Driven Cancers: A Therapeutic Approach Toward Precision Medicine.” Mol Cancer Ther. 2020 February; 19(2):325-336; and “The novel JNK inhibitor AS602801 inhibits cancer stem cells in vitro and in vivo.” Oncotarget. 2016 May 10; 7(19):27021-32, which are entirely incorporated hereinto by reference. Therefore, if the activations of ERK protein and JNK protein in tumor cells can be reduced, the meningioma growth will be inhibited.
# (§4) IOMM-Lee cells were seeded in a 10 cm culture dish ([…]), and the dish was placed under an environment of 37° C. and 5% CO2 for 24 hours. Then, the cells in different dishes were independently cultured with a medium containing Z-butylidenephthalide at concentrations of 0, 16.8 and 33.6 μg/ml. […] Finally, the expressions of the inactivated JNK protein and ERK protein, and the activated p-JNK protein and p-ERK protein in the cells were detected by Western Blotting. […]
# p-ERK protein = test: Western Blotting of p-ERK protein in IOMM-Lee cells; assay type: cell-based, Human; conditions: IOMM-Lee cells, 0, 16.8 and 33.6 μg/ml, 24 hours, FIG. 1
# Source text: as §3, §4
# grade III meningioma = test: Human test: tumor size by T1-weighted MRI after wafer implantation; assay type: in vivo; conditions: one subject with grade III meningioma; six wafers (75 mg Z-butylidenephthalide per wafer) implanted in resection cavity, plus oral temozolomide; up to 224 days after operation
# Procedure: In this example, depending on the approval of the Research Ethics Committee Hualien Tzu Chi Hospital (Buddhist Tzu Chi Medical Foundation; SP109-04), meningioma patients were administered with Z-butylidenephthalide to observe the effects of the compounds of the present invention on inhibiting meningioma growth.
# During the surgical operation for resecting meningioma in a subject (suffered with grade III meningioma), six wafers containing Z-butylidenephthalide (75 mg of Z-butylidenephthalide per wafer) were implanted into the cavity generated by resecting meningioma. The subject also took 150 mg/m^2 of body surface area/day (the first treatment course) or 200 mg/m^2 of body surface area/day (the second to sixth treatment course) of temozolomide via oral administration every day post-operation. […] On the other hand, the tumor size in the pictures of the subject's brain (at pre-operation, and post-operative days 1, 28, 84, 168, and 224), obtained by T1-weighted magnetic resonance imaging, was also calculated by using StealthStation S7 software (purchased from Medtronic company, US).
molecule,measurement,setting,value
2-pentanolybenzoic acid,IC50 (concentration to achieve 50% lethal rate),IOMM-Lee cells,304.3 µg/mL
same,IC50 (concentration to achieve 50% lethal rate),AMGI-0102 cells,1286.3 µg/mL
CCC/C=C1/OC(=O)c2ccccc21 [E-butylidenephthalide],IC50,IOMM-Lee cells,306 µg/mL
CCC/C=C1\OC(=O)c2ccccc21 [Z-butylidenephthalide],IC50,IOMM-Lee cells,33.5 µg/mL
same,IC50,"AMGI-0102 cells; Homo sapiens, read-out: IC50 (concentration to achieve 50% lethal rate)",94.5 µg/mL
same,expression of p-JNK protein,p-JNK protein,significantly decreased
same,expression of p-ERK protein,p-ERK protein,significantly decreased
same,tumor size of the subject,grade III meningioma,no change in the tumor size
CCCCC(=O)c1ccccc1C(=O)[O-].[Na+] [sodium 2-pentanoylbenzoate],IC50,IOMM-Lee cells,365 µg/mL
